pEC50, pIC50: −log10 of the molar value. Bounds are passed on as bounds.

The test system of series [1] is K562-R cells. Put plainly: Metabolic activity of K562-R cells, compounds alone (modified MTT assay). In kind it is cell-based, human. The following applies: 72 h; for viability at 10 µM: Homo sapiens, K-562R, read-out: metabolic activity of K562-R cells, compound alone; for metabolic activity of K562-R cells, compound alone: 10 μM, without imatinib, vehicle control = 100%. The method, then: (§1) The potential reduction in cell viability was determined using the modified MTT assay.
First, the compounds (10 μM) were applied alone to evaluate their effects per se.
(§2) COS-7 (2 × 10^3 cells per well), IGROV-1 SP (2.5 × 10^3 cells per well), A2780 V SP (1.5 × 10^3 cells per well), PC3-DR (4 × 10^3 cells per well), and DU145-DR (3 × 10^3 cells per well) cells were seeded in 96-well plates in triplicates and after 24 h, the compounds were added at the respective concentrations. K562-R and K562 cells (2 × 10^4 cells per well), were treated with the compounds 2 h after seeding. […] A modified MTT colorimetric assay (EZ4U kit, Biomedica) was used to determine the metabolic activity of the tested cells, according to the manufacturer’s instructions. Absorbance was measured and the optical density of the respective FCS-containing medium and of the substrate was subtracted to exclude nonspecific staining. Metabolic activity in the absence of the compounds (CTR, DMSO) was set to 100% as reference.

The next series concerns STAT5. The experiment in a line: Jess Simple Western immunoassay of STAT5/pSTAT5 in K562-R cells. The format is cell-based, human. As for the experimental part: In the next step, the effects of the compounds (4 μM) on STAT5 in K562-R cells were examined.
(§3) Protein extracts were prepared as previously described.[44] Protein expression was determined using the capillary-based Jess Simple Western detection system (ProteinSimple, BioTechne) according to the manufacturer’s instructions at default settings. […] Horseradish peroxidase (HRP)-conjugated secondary antirabbit antibody, which was included in the Jess Detection Module kit, was used. Data analysis was conducted using Compass for Simple Western 4.0 software (ProteinSimple, BioTechne).

The test system of series [2] is ABCB1. The experiment in a line: Jess Simple Western immunoassay of ABCB1 expression in K562-R cells. The format is cell-based, human. The following applies: 4 μM, 72 h. As for the experimental part:
as §3

The test system of series [3] is K562-R cells. The experiment in a line: Chemosensitizing: metabolic activity of K562-R cells cotreated with imatinib (modified MTT assay). The settings on record: 72 h; for pEC50 / chemosensitizing effect, concentration-dependent analysis: K562-R, + imatinib 1 μM; for pEC50: read-out: SC50 (drug concentration eliciting 50% of the maximum sensitizing effect); for chemosensitizing effect, concentration-dependent analysis: 0.5–8 μM (transporter inhibitors 10 to 0.5 μM). The format is cell-based, human. As for the experimental part:
as §1
conc. 10 to 0.5 μM) over 72 h (Figure 3D).
as §2

Series [4] addresses ABCB1 transporter in K562-R cells (Homo sapiens, UniProt P08183). The experiment in a line: Side population (SP) analysis, DCV staining, flow cytometry. The settings on record: 10 μM.
Procedure: SP analyses were performed as previously described[45] on a LSRFortessa flow cytometer (BD Biosciences, Vienna, Austria). Briefly, 1 × 10^6 cells/mL were stained with 10 μM Vybrant DyeCycleTM Violet (DCV; Molecular Probes, Eugene, OR) in the presence or absence of the investigated compounds for 90 min at 37 °C. […] Subsequently, the cells were washed and immediately analyzed using flow cytometry. The FlowJo 9.6 software was used for data analyses (Tree Star Software, Ashland, CA).
The test system of a further series is K562 cells. Put plainly: Metabolic activity of TKI-sensitive K562 cells (MTT assay). In kind it is cell-based, human. The following applies: 10 μM, 72 h, alone. The method, then: Selectivity for therapy-resistant K562-R cells can be assessed by comparing the results with TKI-sensitive K562 cells.
as §2

The test system of another series is DU145-DR cells. The experiment in a line: Chemosensitizing to docetaxel: metabolic activity of DU145-DR cells (MTT). The format is cell-based, human. The following applies: DTX 12.5 nM, 72 h, compared to solvent control. The method, then: (§4) The chemosensitizing efficacy was investigated in the ovarian and prostate cancer cell lines using the above-described metabolic activity assay. Paclitaxel (PTX) served as a reference (CTR) in A2780 V SP and IGROV-1 SP cells and docetaxel (DTX) in PC3-DR and D145-DR cells.
as §2

In another series the test system is PC3-DR cells. Put plainly: Chemosensitizing to docetaxel: metabolic activity of PC3-DR cells (MTT). The format is cell-based, human. The settings on record: DTX 12.5 nM, 72 h, compared to solvent control. The method, then: as §4, §2
For the next series, the system named is A2780 V SP cells. The experiment in a line: Chemosensitizing to paclitaxel: metabolic activity of A2780 V SP cells (MTT). In kind it is cell-based, human. The method, then: as §4, §2
The next series relates to IGROV-1 SP cells. Put plainly: Chemosensitizing to paclitaxel: metabolic activity of IGROV-1 SP cells (MTT). The format is cell-based, human. The following applies: PTX 10 nM, 72 h, compared to solvent control. The method, then: as §4, §2
Series [5] relates to ABCB1. Further details: method as in Weiss et al. 38. The following applies: ref Weiss et al. 38; cited from earlier work.

Sequence of ABCB1 transporter in K562-R cells (P08183 whole entry): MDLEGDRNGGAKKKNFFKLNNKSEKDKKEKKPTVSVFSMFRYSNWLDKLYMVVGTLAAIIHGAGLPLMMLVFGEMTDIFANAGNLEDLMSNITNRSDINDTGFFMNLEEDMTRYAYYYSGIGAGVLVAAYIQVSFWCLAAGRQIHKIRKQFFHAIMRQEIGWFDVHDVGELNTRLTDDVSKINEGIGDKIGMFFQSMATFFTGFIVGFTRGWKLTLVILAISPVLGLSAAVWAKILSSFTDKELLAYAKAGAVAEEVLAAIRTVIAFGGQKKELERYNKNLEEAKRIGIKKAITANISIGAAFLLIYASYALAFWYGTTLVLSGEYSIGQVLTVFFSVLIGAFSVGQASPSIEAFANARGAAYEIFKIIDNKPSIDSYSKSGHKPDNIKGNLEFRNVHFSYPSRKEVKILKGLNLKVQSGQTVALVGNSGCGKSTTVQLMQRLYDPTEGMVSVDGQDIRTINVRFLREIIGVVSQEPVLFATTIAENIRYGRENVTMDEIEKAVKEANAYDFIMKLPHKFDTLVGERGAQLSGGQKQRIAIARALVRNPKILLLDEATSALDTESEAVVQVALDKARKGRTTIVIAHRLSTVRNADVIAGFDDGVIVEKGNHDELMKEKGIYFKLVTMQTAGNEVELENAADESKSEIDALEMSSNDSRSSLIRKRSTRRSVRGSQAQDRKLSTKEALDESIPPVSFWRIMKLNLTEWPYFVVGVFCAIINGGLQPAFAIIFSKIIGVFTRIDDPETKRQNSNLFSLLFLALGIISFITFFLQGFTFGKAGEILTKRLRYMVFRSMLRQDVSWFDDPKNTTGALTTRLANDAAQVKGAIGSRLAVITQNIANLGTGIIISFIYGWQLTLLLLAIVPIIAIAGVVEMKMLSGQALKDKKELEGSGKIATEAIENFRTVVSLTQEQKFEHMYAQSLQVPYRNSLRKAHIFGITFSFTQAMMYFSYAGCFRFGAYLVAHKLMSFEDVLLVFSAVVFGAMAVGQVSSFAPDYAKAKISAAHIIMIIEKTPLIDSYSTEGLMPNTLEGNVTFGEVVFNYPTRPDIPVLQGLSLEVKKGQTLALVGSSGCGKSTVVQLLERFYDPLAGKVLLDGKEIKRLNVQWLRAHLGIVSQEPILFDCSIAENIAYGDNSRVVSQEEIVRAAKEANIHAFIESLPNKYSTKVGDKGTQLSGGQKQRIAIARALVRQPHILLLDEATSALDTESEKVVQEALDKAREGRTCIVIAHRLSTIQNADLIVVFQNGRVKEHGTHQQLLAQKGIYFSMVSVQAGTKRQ

As to `CCCc1nc2ccccc2n1Cc1ccccc1C(=O)OC` [1b, Methyl 2-((2-propyl-1H-benzo[d]imidazole-1-yl)methyl)benzoate], the viability at 10 µM in the series with K562-R cells [1] was less than 70%. Also, the “phosphorylation of STAT5” value with STAT5 (4 μM + imatinib 1 μM, 6 h) is reported as “hardly triggered any change in the expression of pSTAT5”; in the series with STAT5 (4 μM alone, 72 h) it was “prevented the activation of STAT5”. Besides, the ABCB1 protein expression result in the series on ABCB1 [2] was “none of the compounds abrogated the ABCB1 protein expression”. For the same compound, the “metabolic activity of K562-R cells, combination with imatinib” value (“metabolic activity … with imatinib” for short) in the series on K562-R cells [3] (compound 8 μM + imatinib 1 μM) is 44–57%; in the series on K562-R cells [3] (compound 10 μM + imatinib 1 μM), 34–58%. Further, the “effect on SP phenotype / ABCB1 activity” value in series [4] was “had no significant impact on the SP”.
`CCCc1nc2ccccc2n1Cc1ccccc1C(N)=O` [1c, 2-((2-Propyl-1H-benzo[d]imidazole-1-yl)methyl)benzamide]: the viability at 10 µM in the series on K562-R cells [1] lay in the range of 75 to 80%. Also, the “metabolic activity … with imatinib” value in the series with K562-R cells [3] (compound 10 μM + imatinib 1 μM) is listed as “could not be increased”.
For `CCCc1nc2ccccc2n1Cc1cccc(C(=O)OC)c1` [2b, Methyl 3-((2-propyl-1H-benzo[d]imidazole-1-yl)methyl)benzoate], the viability at 10 µM in the series with K562-R cells [1] was less than 70%. Moreover, the “metabolic activity … with imatinib” value is given as 44–57% in the series with K562-R cells [3] (compound 8 μM + imatinib 1 μM) and 34–58% in the series on K562-R cells [3] (compound 10 μM + imatinib 1 μM). In [4], the “effect on SP phenotype / ABCB1 activity” value is listed as “had no significant impact on the SP”.
On to `CCCc1nc2ccccc2n1Cc1cccc(C(N)=O)c1` [2c, 3-((2-Propyl-1H-benzo[d]imidazole-1-yl)methyl)benzamide], for which the “metabolic activity … with imatinib” value in the series on K562-R cells [3] (compound 10 μM + imatinib 1 μM) is recorded as “could not be increased”.
With `CCCc1nc2ccccc2n1Cc1ccc(C(=O)OC)cc1` [3b, Methyl 4-((2-propyl-1H-benzo[d]imidazole-1-yl)methyl)benzoate], the “metabolic activity … with imatinib” value in the series on K562-R cells [3] (compound 8 μM + imatinib 1 μM) is recorded as 44–57%; with K562-R cells [3] (compound 10 μM + imatinib 1 μM), 34–58%. For the same compound, in series [4], the “effect on SP phenotype / ABCB1 activity” value is listed as “had no significant impact on the SP”.
For `CCCc1nc2ccccc2n1Cc1ccc(C(N)=O)cc1` [3c, 4-((2-Propyl-1H-benzo[d]imidazole-1-yl)methyl)benzamide], the “metabolic activity … with imatinib” value with K562-R cells [3] (compound 10 μM + imatinib 1 μM) is “could not be increased”.
Turning to `CCCc1nc2ccccc2n1Cc1ccc(-c2ccccc2C(=O)OC)cc1` [4b, Methyl 4′-((2-propyl-1H-benzo[d]imidazole-1-yl)methyl)-[1,1′-biphenyl]-2-carboxylate], in the series with K562 cells, the “metabolic activity of K562 cells” value is listed as no less than 65%. Moreover, the viability at 10 µM with K562-R cells [1] was less than 70%. Moreover, the “phosphorylation of STAT5” value in the series with STAT5 (4 μM + imatinib 1 μM, 6 h) was “hardly triggered any change in the expression of pSTAT5”. The “phosphorylation of STAT5” value in the series on STAT5 (4 μM alone, 72 h) is on record as “prevented the activation of STAT5”. The ABCB1 protein expression entry with ABCB1 [2] is “none of the compounds abrogated the ABCB1 protein expression”. Besides, in the series with K562-R cells [3], the pEC50 was 5.91. For the same compound, the “metabolic activity … with imatinib” value in the series on K562-R cells [3] (compound 10 μM + imatinib 1 μM) is reported as 8–24%. In series [4], the “effect on SP phenotype / ABCB1 activity” value is on record as “efficiently reduced the ABCB1 activity”; the “relation of SP and NSP” value is on record as “about 50%”.
For `CCCc1nc2ccccc2n1Cc1ccc(-c2cccc(C(=O)OC)c2)cc1` [5b, Methyl 4′-((2-propyl-1H-benzo[d]imidazole-1-yl)methyl)-[1,1′-biphenyl]-3-carboxylate], the “metabolic activity of K562 cells” value in the series with K562 cells is given as no less than 65%. Besides, the viability at 10 µM with K562-R cells [1] was less than 70%. Further, the “metabolic activity … with imatinib” value in the series on K562-R cells [3] (compound 10 μM + imatinib 1 μM) is 34–58%.
As for `CCCc1nc2ccccc2n1Cc1ccc(-c2ccc(C(=O)OC)cc2)cc1` [6b, Methyl 4′-((2-propyl-1H-benzo[d]imidazole-1-yl)methyl)-[1,1′-biphenyl]-4-carboxylate], in the series with K562 cells, the “metabolic activity of K562 cells” value is no less than 65%. Further, the viability at 10 µM in the series with K562-R cells [1] was in the range of 75 to 80%. For the same compound, the “phosphorylation of STAT5” value with STAT5 (4 μM + imatinib 1 μM, 6 h) was “marked repression of the STAT5 phosphorylation”. Moreover, the ABCB1 protein expression result in the series with ABCB1 [2] is given as “none of the compounds abrogated the ABCB1 protein expression”. Further, in the series with K562-R cells [3], the pEC50 was 5.93. Moreover, the “metabolic activity … with imatinib” value in the series with K562-R cells [3] (compound 10 μM + imatinib 1 μM) is 8–24%. Also, in series [4], the “effect on SP phenotype / ABCB1 activity” value is on record as “efficiently reduced the ABCB1 activity”; the “relation of SP and NSP” value is “about 50%”.
In the case of `CC(=O)O[C@@]12CO[C@@H]1C[C@H](O)[C@@]1(C)C(=O)[C@H](O)C3=C(C)[C@@H](OC(=O)[C@H](O)[C@@H](NC(=O)OC(C)(C)C)c4ccccc4)C[C@@](O)([C@@H](OC(=O)c4ccccc4)[C@H]21)C3(C)C` [DTX, docetaxel, reference compound], the “metabolic activity of treated cells, DTX alone” value with DU145-DR cells and in the series on PC3-DR cells was greater than 80% each time.
Take `CC(=O)O[C@H]1C(=O)[C@@]2(C)[C@H]([C@H](OC(=O)c3ccccc3)[C@]3(O)C[C@H](OC(=O)[C@H](O)[C@@H](NC(=O)c4ccccc4)c4ccccc4)C(C)=C1C3(C)C)[C@]1(OC(C)=O)CO[C@@H]1C[C@@H]2O` [PTX, paclitaxel]: the pIC50 with A2780 V SP cells (Homo sapiens, PTX 0–300 nM, read-out: IC50 (PTX), PTX alone) was 6.78. For the same compound, the “metabolic activity of treated cells, PTX alone” value in the series with A2780 V SP cells (PTX 10 nM, 72 h, compared to solvent control) is greater than 80%; in the series on IGROV-1 SP cells, greater than 80%.
With `COc1cc2c(cc1OC)CN(CCc1ccc(NC(=O)c3cccc4c(=O)c5cccc(OC)c5[nH]c34)cc1)CC2` [elacridar, reference compound], the “metabolic activity of K562 cells” value in the series with K562 cells is “did not affect the viability”. Also, the “metabolic activity of K562-R cells, compound alone” value in the series on K562-R cells [1] is reported as “did not affect the viability”. Moreover, the “phosphorylation of STAT5” value in the series with STAT5 (4 μM + imatinib 1 μM, 6 h) is “hardly triggered any change in the expression of pSTAT5”; in the series on STAT5 (4 μM alone, 72 h), “did not influence the phosphorylation of STAT5”. Besides, the ABCB1 protein expression entry with ABCB1 [2] is on record as “none of the compounds abrogated the ABCB1 protein expression”. Further, the “chemosensitizing effect, concentration-dependent analysis” value in the series on K562-R cells [3] was “comparable to telmi-ester (7b)”.
As to `CCCCC1=NC2(CCCC2)C(=O)N1Cc1ccc(-c2ccccc2-c2nnn[nH]2)cc1` [irbesartan], the “inhibition of ABCB1” value with ABCB1 [5] is “only slightly”.
On to `C/C=C/C[C@@H](C)C(=O)[C@H]1C(=O)N[C@@H](C(C)C)C(=O)N(C)CC(=O)N(C)[C@@H](CC(C)C)C(=O)N[C@@H](C(C)C)C(=O)N(C)[C@@H](CC(C)C)C(=O)N[C@@H](C)C(=O)N[C@H](C)C(=O)N(C)[C@@H](CC(C)C)C(=O)N(C)[C@@H](CC(C)C)C(=O)N(C)[C@@H](C(C)C)C(=O)N1C` [valspodar, reference compound], for which the “metabolic activity of K562 cells” value with K562 cells is recorded as “did not affect the viability”. In the series with K562-R cells [1], the “metabolic activity of K562-R cells, compound alone” value is listed as “did not affect the viability”. The “chemosensitizing effect, concentration-dependent analysis” value in the series with K562-R cells [3] is reported as “sensitized the cells similarly to the derivatives 4b, 5c, 6b, 6c”.

These data come from paper PMC11726677, “Eradication of Therapy-Resistant Cancer Stem Cells by Novel Telmisartan Derivatives” (Journal of Medicinal Chemistry, 2024).
